Assay results as given in ChEMBL document CHEMBL4819073, “Synthesis and biological evaluation of phenothiazine derivative-containing hydroxamic acids as potent class II histone deacetylase inhibitors” (Eur J Med Chem, 2021).
Activity calls are given as the source filed them. The rule behind the calls is not given here.

Columns and labels:
Histone deacetylase = experiment: Inhibition of HDAC in human HeLa nuclear extracts using Boc-Lys (acetyl)-AMC as substrate preincubated for 5 mins followed by substrate addition and further incubated for 30 mins by fluorescence based assay; type: subcellular, Nucleus
[1] = molecular target: T1, Protein deacetylase HDAC6 (Homo sapiens, UniProt Q9UBN7); experiment: Inhibition of N-terminal GST-tagged full length human HDAC6 expressed in baculovirus-infected Sf9 cells using Boc-Lys (acetyl)-AMC as substrate preincubated for 5 mins followed by substrate addition and further incubated for 30 mins by fluorescence based assay
T1 sequence (Q9UBN7 whole entry): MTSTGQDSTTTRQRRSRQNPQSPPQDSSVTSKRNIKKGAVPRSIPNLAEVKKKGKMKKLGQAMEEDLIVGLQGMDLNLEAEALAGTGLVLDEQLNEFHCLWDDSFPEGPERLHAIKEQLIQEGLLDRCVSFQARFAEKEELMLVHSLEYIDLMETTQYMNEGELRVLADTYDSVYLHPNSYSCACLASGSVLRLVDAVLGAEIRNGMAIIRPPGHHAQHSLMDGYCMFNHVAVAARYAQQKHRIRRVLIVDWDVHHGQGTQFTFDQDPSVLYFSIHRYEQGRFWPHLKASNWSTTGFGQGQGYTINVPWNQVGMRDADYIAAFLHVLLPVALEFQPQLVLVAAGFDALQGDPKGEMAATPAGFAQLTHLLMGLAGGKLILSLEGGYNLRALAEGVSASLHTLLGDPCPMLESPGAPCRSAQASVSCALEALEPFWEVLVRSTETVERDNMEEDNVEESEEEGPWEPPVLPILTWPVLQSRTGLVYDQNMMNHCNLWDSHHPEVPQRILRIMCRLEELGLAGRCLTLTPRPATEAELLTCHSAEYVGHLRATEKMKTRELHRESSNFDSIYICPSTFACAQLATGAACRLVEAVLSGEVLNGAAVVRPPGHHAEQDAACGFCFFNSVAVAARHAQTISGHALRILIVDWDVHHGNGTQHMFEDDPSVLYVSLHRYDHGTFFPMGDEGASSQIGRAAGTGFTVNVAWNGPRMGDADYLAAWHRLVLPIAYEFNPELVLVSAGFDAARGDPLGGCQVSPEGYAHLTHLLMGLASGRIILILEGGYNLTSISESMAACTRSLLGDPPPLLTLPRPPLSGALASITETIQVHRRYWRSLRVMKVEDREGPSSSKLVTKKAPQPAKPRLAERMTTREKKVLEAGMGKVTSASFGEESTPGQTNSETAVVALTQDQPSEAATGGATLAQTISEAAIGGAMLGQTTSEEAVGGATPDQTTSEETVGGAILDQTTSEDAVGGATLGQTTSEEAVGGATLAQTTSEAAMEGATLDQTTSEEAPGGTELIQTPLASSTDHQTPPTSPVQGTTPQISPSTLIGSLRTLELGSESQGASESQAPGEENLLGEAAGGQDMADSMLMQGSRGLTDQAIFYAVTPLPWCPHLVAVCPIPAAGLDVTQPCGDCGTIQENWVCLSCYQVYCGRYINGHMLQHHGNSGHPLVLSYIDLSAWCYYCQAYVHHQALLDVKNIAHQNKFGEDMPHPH

Histone deacetylase 7 = molecular target: T2, Histone deacetylase 7 (Homo sapiens, UniProt Q8WUI4); experiment: Inhibition of N-terminal GST-tagged human HDAC7 (518 to end residues) expressed in baculovirus-infected Sf9 cells using Boc Lys(TFA)-AMC as substrate preincubated for 5 mins followed by substrate addition and further incubated for 30 mins by fluorogenic assay
T2 sequence (Q8WUI4 whole entry): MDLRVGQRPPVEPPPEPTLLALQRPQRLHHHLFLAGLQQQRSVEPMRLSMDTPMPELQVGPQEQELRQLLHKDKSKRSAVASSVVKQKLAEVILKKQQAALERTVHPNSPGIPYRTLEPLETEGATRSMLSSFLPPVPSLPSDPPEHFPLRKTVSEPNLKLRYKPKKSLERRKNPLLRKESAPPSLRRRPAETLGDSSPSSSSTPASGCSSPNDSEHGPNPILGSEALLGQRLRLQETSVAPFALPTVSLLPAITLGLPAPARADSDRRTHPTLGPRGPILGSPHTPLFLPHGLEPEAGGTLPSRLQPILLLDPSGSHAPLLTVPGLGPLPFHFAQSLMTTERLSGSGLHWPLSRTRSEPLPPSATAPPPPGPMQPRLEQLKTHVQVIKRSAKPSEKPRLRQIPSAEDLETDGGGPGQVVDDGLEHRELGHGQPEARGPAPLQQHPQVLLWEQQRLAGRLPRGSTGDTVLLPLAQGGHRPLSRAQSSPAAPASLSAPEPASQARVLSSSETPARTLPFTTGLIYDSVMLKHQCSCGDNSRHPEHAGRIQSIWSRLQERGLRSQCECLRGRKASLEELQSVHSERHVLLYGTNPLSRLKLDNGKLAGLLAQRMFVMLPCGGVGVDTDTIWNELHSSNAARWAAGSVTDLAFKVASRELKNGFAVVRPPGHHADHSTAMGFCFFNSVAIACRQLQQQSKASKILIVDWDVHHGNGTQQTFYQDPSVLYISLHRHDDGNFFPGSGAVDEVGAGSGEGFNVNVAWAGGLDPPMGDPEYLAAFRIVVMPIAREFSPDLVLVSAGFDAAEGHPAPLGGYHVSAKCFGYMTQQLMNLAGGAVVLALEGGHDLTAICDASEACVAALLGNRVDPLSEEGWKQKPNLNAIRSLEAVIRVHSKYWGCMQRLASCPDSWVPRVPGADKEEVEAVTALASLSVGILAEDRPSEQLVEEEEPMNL

Histone deacetylase 9 = Histone deacetylase 9 (Homo sapiens, UniProt Q9UKV0); experiment: Inhibition of C-terminal His-tagged human HDAC9 (604 to 1066 residues) expressed in baculovirus-infected Sf9 cells using Boc Lys(TFA)-AMC as substrate preincubated for 5 mins followed by substrate addition and further incubated for 30 mins by fluorogenic assay
Sequence of Histone deacetylase 9 (Q9UKV0 whole entry, the tested form may be a part): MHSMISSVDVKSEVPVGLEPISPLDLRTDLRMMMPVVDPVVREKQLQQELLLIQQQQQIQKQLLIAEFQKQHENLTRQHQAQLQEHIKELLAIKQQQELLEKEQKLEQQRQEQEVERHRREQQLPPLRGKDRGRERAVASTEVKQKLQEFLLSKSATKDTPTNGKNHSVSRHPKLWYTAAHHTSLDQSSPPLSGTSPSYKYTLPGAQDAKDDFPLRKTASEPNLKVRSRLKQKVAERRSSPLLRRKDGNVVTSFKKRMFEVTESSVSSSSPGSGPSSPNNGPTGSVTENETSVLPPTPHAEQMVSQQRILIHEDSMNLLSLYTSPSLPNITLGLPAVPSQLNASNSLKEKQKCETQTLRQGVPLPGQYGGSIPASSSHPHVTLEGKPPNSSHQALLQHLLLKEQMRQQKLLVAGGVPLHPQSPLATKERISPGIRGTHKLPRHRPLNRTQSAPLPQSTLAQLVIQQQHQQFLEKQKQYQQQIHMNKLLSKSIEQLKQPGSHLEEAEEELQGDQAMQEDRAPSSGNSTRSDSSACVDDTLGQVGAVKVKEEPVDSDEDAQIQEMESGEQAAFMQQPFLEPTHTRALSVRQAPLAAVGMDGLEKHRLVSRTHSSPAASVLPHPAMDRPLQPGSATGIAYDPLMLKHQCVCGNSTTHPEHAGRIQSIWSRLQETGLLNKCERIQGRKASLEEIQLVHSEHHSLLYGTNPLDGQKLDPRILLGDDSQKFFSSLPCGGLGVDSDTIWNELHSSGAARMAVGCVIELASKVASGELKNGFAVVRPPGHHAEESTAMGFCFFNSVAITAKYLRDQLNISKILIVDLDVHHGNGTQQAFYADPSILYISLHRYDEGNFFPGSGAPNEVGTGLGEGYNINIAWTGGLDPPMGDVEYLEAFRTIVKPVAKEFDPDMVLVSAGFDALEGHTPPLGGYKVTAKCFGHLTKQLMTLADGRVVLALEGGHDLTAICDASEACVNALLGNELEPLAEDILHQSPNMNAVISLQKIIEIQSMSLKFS

Histone deacetylase 4 = Histone deacetylase 4 (Homo sapiens, UniProt P56524); experiment: Inhibition of N-terminal GST-tagged and C-terminal His-tagged human HDAC4 (627 to 1084 residues) expressed in baculovirus infected Sf9 cells using Boc Lys(TFA)-AMC as substrate preincubated for 5 mins followed by substrate addition and further incubated for 30 mins by fluorogenic assay
Sequence of Histone deacetylase 4 (P56524 whole entry, the tested form may be a part): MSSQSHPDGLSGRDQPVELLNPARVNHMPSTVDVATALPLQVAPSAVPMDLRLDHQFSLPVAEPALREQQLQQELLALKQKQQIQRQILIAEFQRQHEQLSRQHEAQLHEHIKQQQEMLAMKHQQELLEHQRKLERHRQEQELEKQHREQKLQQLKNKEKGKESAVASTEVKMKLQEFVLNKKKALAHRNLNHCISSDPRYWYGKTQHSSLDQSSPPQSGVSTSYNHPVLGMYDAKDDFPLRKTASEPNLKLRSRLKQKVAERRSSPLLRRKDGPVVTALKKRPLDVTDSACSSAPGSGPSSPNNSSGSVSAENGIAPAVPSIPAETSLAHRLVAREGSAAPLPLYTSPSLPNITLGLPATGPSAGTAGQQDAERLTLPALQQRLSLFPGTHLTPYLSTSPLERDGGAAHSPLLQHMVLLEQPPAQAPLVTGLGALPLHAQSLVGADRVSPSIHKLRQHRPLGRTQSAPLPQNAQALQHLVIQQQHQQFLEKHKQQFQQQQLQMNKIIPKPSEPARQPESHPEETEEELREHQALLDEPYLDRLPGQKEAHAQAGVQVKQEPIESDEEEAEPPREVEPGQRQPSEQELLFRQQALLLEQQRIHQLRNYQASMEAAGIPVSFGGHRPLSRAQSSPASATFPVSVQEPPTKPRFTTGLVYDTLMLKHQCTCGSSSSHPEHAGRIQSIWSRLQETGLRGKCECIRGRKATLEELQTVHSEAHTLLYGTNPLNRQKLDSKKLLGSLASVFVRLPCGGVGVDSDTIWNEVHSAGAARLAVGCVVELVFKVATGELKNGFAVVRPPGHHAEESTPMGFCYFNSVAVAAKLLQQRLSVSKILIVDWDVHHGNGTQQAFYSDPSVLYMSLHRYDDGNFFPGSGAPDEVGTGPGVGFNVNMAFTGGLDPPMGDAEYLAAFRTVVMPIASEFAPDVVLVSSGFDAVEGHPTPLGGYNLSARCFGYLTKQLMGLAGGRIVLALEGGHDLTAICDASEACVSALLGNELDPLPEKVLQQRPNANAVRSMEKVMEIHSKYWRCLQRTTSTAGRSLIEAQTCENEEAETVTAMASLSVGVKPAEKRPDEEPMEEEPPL

SH-SY5Y [2] = experiment: Neuroprotective activity against H2O2-induced cell death in human SH-SY5Y cells assessed as increase in cell viability incubated for 3 hrs by MTT assay; type: functional, cell-based; details: dose 2.5-40 µM
[3] = molecular target: Class 1 histone deacetylase (Mus musculus) (UniProt Q8VH37+O09106+P70288+O88895); experiment: Inhibition of class I HDAC in mouse Neuro2a cells assessed as increase in acetylated histone H3 level at 0.039 to 20 uM incubated for 24 hrs by Western blot analysis; type: cell-based; details: dose 0.039-20 µM
SH-SY5Y [4] = experiment: Induction of neurite outgrowth in human SH-SY5Y cells incubated for 5 days by immunostaining analysis; type: functional, cell-based; details: dose 1.25-5 µM, time 5.0 day
SH-SY5Y [5] = experiment: Neuroprotective activity against H2O2-induced cell death in human SH-SY5Y cells assessed as cell viability at 40 uM incubated for 3 hrs by MTT assay; type: functional; details: read-out: Activity
[6] = molecular target: Amyloid-beta precursor protein (Homo sapiens) (UniProt P05067); experiment: Inhibition of amyloid beta (1 to 42) (unknown origin) aggregation upto 10 uM by ThT fluorescence assay; details: dose microM <=10
Sequence of Amyloid-beta precursor protein (Homo sapiens) (P05067 whole entry): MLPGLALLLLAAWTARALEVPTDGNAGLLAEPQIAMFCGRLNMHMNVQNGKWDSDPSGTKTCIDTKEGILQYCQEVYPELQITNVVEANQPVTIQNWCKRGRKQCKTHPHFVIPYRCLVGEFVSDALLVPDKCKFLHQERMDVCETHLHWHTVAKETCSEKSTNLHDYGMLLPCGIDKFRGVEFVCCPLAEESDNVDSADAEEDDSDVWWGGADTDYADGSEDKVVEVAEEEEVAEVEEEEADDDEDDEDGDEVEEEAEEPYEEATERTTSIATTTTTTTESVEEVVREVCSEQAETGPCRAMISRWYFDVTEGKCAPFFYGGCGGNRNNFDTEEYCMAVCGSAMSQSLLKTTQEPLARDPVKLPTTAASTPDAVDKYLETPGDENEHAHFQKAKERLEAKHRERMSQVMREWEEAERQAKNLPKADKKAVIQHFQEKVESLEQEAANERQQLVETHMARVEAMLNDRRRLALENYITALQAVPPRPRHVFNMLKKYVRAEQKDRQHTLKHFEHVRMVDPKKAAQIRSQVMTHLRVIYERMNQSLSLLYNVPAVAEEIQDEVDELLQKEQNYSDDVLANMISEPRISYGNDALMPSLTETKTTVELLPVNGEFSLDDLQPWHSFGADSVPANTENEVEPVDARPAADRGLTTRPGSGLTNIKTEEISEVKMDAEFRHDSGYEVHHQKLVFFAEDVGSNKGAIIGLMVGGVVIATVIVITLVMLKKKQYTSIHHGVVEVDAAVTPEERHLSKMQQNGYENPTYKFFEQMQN

[7] = molecular target: Acetylcholinesterase (Homo sapiens) (UniProt P22303); experiment: Inhibition of AChE (unknown origin)
Sequence of Acetylcholinesterase (Homo sapiens) (P22303 whole entry): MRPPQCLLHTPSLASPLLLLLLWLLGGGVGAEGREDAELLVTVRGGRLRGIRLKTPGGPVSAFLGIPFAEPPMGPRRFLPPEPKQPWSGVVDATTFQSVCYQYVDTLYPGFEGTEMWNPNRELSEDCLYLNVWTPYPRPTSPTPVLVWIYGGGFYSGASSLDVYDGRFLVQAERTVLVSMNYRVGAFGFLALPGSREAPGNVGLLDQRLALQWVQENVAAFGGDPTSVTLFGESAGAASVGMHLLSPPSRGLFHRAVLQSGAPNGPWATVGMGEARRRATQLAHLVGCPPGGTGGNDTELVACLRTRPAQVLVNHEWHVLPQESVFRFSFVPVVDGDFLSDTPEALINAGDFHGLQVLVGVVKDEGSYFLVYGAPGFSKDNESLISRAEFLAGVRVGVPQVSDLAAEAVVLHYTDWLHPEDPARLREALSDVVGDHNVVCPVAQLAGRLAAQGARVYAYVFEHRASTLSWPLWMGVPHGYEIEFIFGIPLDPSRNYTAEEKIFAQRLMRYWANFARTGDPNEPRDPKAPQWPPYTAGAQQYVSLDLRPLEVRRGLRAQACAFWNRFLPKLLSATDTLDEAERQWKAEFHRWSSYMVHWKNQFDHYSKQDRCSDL

SH-SY5Y [8] = experiment: Induction of neurite outgrowth in human SH-SY5Y cells at 2.5 uM incubated for 5 days by immunostaining analysis; type: functional, cell-based; details: time 5.0 day
[9] = molecular target: T3, Protein deacetylase HDAC6 (Mus musculus) (UniProt Q9Z2V5); experiment: Inhibition of HDAC6 in mouse Neuro2a cells assessed as increase in acetylated alpha-tubulin levels incubated for 24 hrs by Western blot analysis; type: cell-based; details: dose 0.039-20 µM
T3 sequence (whole entry): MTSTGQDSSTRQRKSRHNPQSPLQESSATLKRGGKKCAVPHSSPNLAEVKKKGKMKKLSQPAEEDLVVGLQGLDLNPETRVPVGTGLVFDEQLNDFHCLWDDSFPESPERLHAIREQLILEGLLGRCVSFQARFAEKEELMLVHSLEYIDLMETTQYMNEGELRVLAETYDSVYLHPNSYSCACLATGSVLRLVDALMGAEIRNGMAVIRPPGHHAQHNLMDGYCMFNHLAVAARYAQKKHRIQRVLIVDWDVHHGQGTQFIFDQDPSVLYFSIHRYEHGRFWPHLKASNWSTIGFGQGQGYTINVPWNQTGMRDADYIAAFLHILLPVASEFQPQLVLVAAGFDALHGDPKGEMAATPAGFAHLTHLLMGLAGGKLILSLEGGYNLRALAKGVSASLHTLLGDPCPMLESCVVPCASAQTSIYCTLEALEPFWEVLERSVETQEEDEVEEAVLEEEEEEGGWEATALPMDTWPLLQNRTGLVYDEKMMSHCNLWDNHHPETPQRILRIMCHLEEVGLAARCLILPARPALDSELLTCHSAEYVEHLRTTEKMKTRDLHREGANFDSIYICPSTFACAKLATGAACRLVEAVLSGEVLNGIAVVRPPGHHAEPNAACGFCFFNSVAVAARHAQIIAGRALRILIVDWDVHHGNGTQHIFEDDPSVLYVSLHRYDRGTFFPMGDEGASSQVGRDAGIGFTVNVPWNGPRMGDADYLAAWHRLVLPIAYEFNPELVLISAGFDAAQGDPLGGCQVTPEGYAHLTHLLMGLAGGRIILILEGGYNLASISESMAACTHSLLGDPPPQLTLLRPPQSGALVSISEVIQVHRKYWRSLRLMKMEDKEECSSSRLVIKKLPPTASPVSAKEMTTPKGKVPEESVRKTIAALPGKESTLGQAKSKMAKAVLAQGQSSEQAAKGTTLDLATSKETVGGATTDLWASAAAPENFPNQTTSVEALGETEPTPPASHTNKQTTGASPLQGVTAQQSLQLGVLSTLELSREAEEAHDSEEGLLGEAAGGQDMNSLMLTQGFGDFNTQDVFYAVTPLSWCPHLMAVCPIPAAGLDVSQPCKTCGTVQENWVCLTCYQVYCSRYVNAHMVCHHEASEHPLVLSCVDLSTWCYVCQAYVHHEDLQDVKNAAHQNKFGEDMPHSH

N2a = experiment: Cytotoxicity against mouse Neuro2a cells assessed as reduction in cell viability at 20 uM incubated for 24 hrs by Cell Titer-Glo 2.0 Luminescent cell assay; type: cell-based

SMILES	IC50 (Histone deacetylase)	IC50 [1]	IC50 (Histone deacetylase 7)	IC50 (Histone deacetylase 9)	IC50 (Histone deacetylase 4)	other results
NC(=O)c1ccc2c(c1)N(Cc1ccc(/C=C/C(=O)NO)cc1)c1ccccc1S2	20 nM	37 nM	5740 nM	8270 nM	3260 nM	–
O=C(NO)c1ccc(CN2c3ccccc3Sc3ccc(C(F)(F)F)cc32)cc1	840 nM	14.2 nM	2240 nM	2580 nM	7590 nM	–
CSc1ccc2c(c1)N(Cc1ccc(C(=O)NO)cc1)c1ccccc1S2	680 nM	9.4 nM	2250 nM	3260 nM	5800 nM	–
O=C(NO)c1ccc(CN2c3ccccc3Sc3ccc(Cl)cc32)cc1	290 nM	9.5 nM	1360 nM	350 nM	3600 nM	–
O=C(NO)c1ccc(Nc2c3ccccc3nc3ccc(Br)cc23)cc1	160 nM	–	–	–	–	–
CSc1ccc2c(c1)N(Cc1ccc(C(=O)NO)cc1)c1ccccc1[S+]2[O-] (configuration not stated)	1680 nM	35.9 nM	> 40000 nM	720 nM	> 40000 nM	–
NC(=O)c1ccc2c(c1)N(Cc1ccc(C(=O)NO)cc1)c1ccccc1[S+]2[O-] (configuration not stated)	1690 nM	14.3 nM	9380 nM	4200 nM	12900 nM	–
O=C(NO)c1ccc(CN2c3ccccc3[S+]([O-])c3ccccc32)cc1	2760 nM	20.5 nM	5150 nM	27600 nM	6620 nM	–
NC(=O)c1ccc2c(c1)N(Cc1ccc(C(=O)NO)cc1)c1ccccc1S2	–	–	–	–	–	Activity (SH-SY5Y [2]): Dose-Dependent Effect; inhibition [3]: Active; Activity (SH-SY5Y [4]): Dose-Dependent Effect; viability at 40 µM (SH-SY5Y [5]): 70.8%; inhibition [6]: inactive; inhibition [7]: inactive; Activity (SH-SY5Y [8]): Active; inhibition [9]: Dose-Dependent Effect; Activity (N2a): Non-Toxic
O=C(NO)c1ccc(CN2c3ccccc3Sc3ccccc32)cc1	–	–	–	–	–	inhibition [9]: Dose-Dependent Effect; Activity (N2a): Non-Toxic
C/C(=N\O)c1ccc2c(c1)N(Cc1ccc(C(=O)NO)cc1)c1ccccc1S2	330 nM	10.8 nM	1090 nM	4340 nM	3850 nM	–
COc1ccc2c(c1)N(Cc1ccc(C(=O)NO)cc1)c1ccccc1S2	350 nM	18.9 nM	1550 nM	29700 nM	4760 nM	–
